{"source": "PubChem BioAssay (NCI)", "assay_in_all_cases": "NCI tumour cell line growth inhibition, 48 h", "key": {"[1]": {"tested_on": "OVCAR-3 ovarian"}, "[2]": {"tested_on": "CCRF-CEM leukemia"}, "[3]": {"tested_on": "OVCAR-8 ovarian"}, "[4]": {"tested_on": "NCI/ADR-RES ovarian"}, "[5]": {"tested_on": "NCI-H23 lung"}, "[6]": {"tested_on": "HCC-2998 colon"}, "[7]": {"tested_on": "SF-268 CNS"}, "[8]": {"tested_on": "SNB-19 CNS"}, "[9]": {"tested_on": "RPMI-8226 leukemia"}, "[10]": {"tested_on": "SF-539 CNS"}, "[11]": {"tested_on": "SNB-75 CNS"}, "[12]": {"tested_on": "SN12C renal"}, "[13]": {"tested_on": "A549 NSCLC"}, "[14]": {"tested_on": "U251 CNS"}, "[15]": {"tested_on": "CAKI-1 renal"}, "[16]": {"tested_on": "COLO 205 colon"}, "[17]": {"tested_on": "NCI-H226 lung"}, "[18]": {"tested_on": "HOP-62 NSCLC"}, "[19]": {"tested_on": "M14 melanoma"}, "[20]": {"tested_on": "MALME-3M melanoma"}, "[21]": {"tested_on": "DLD-1 colon"}, "[22]": {"tested_on": "SK-MEL-2 melanoma"}, "[23]": {"tested_on": "EKVX NSCLC"}, "[24]": {"tested_on": "KM12 colon"}, "[25]": {"tested_on": "HOP-92 NSCLC"}, "[26]": {"tested_on": "HL-60(TB) leukemia"}, "[27]": {"tested_on": "HCT-15 colon"}, "[28]": {"tested_on": "SK-OV-3 ovarian"}, "[29]": {"tested_on": "UACC-62 melanoma"}, "[30]": {"tested_on": "RXF-631 renal"}, "[31]": {"tested_on": "XF 498 CNS"}, "[32]": {"tested_on": "NCI-H522 lung"}, "[33]": {"tested_on": "SNB-78 CNS"}, "[34]": {"tested_on": "UACC-257 melanoma"}, "[35]": {"tested_on": "DMS 273 small cell lung"}, "[36]": {"tested_on": "LOX IMVI melanoma"}, "[37]": {"tested_on": "RXF 393 renal"}, "[38]": {"tested_on": "KM20L2 colon"}, "[39]": {"tested_on": "SR leukemia"}, "[40]": {"tested_on": "NCI-H460 lung"}, "[41]": {"tested_on": "OVCAR-5 ovarian"}, "[42]": {"tested_on": "K-562 leukemia"}, "[43]": {"tested_on": "786-0 renal"}, "[44]": {"tested_on": "DMS 114 small cell lung"}, "[45]": {"tested_on": "UO-31 renal"}, "[46]": {"tested_on": "ACHN renal"}, "[47]": {"tested_on": "MOLT-4 leukemia"}, "[48]": {"tested_on": "IGROV1 ovarian"}, "[49]": {"tested_on": "SF-295 CNS"}, "[50]": {"tested_on": "HT29 colon"}, "[51]": {"tested_on": "LXFL 529 NSCLC"}, "[52]": {"tested_on": "OVCAR-4 ovarian"}, "[53]": {"tested_on": "SW-620 colon"}, "[54]": {"tested_on": "A498 renal"}, "[55]": {"tested_on": "TK-10 renal"}, "[56]": {"tested_on": "M19-MEL melanoma"}, "[57]": {"tested_on": "HCT-116 colon"}, "[58]": {"tested_on": "HOP-18 NSCLC"}, "[59]": {"tested_on": "SK-MEL-28 melanoma"}, "[60]": {"tested_on": "SK-MEL-5 melanoma"}}, "note": "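How tested: cells in 96-well plates exposed to compound for 48 hours at five concentrations. At the TGI there is no net growth.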 Activity calls are given as the source filed them. Rule as the data show it: active = GI50 below about 0.43 µM; inactive = the rest."}
{"smiles": "CC(C)=C1C(=O)C[C@@]2(C)C[C@H]3OC3(C)CC/C=C(/C)CCC12", "note": "(stereo partly drawn)", "values": [{"measurement": "outcome", "setting": "[1]", "result": "inactive"}, {"measurement": "outcome", "setting": "[2]", "result": "inactive"}, {"measurement": "outcome", "setting": "[3]", "result": "inactive"}, {"measurement": "TGI", "setting": "[4]", "result": 95, "unit": "µM"}, {"measurement": "outcome", "setting": "[5]", "result": "inactive"}, {"measurement": "outcome", "setting": "[6]", "result": "inactive"}, {"measurement": "outcome", "setting": "[7]", "result": "inactive"}, {"measurement": "outcome", "setting": "[8]", "result": "inactive"}, {"measurement": "outcome", "setting": "[9]", "result": "inactive"}, {"measurement": "outcome", "setting": "[10]", "result": "inactive"}, {"measurement": "outcome", "setting": "[11]", "result": "inactive"}, {"measurement": "outcome", "setting": "[12]", "result": "inactive"}, {"measurement": "outcome", "setting": "[13]", "result": "inactive"}, {"measurement": "outcome", "setting": "[14]", "result": "inactive"}, {"measurement": "outcome", "setting": "[15]", "result": "inactive"}, {"measurement": "outcome", "setting": "[16]", "result": "inactive"}, {"measurement": "outcome", "setting": "[17]", "result": "inactive"}, {"measurement": "outcome", "setting": "[18]", "result": "inactive"}, {"measurement": "outcome", "setting": "[19]", "result": "inactive"}, {"measurement": "outcome", "setting": "[20]", "result": "inactive"}, {"measurement": "outcome", "setting": "[21]", "result": "inactive"}, {"measurement": "outcome", "setting": "[22]", "result": "inactive"}, {"measurement": "outcome", "setting": "[23]", "result": "inactive"}, {"measurement": "outcome", "setting": "[24]", "result": "inactive"}, {"measurement": "outcome", "setting": "[25]", "result": "inactive"}, {"measurement": "TGI", "setting": "[26]", "result": 49.2, "unit": "µM"}, {"measurement": "outcome", "setting": "[26]", "result": "inactive"}, {"measurement": "outcome", "setting": "[27]", "result": "inactive"}, {"measurement": "outcome", "setting": "[28]", "result": "inactive"}, {"measurement": "outcome", "setting": "[29]", "result": "inactive"}, {"measurement": "outcome", "setting": "[30]", "result": "inactive"}, {"measurement": "outcome", "setting": "[31]", "result": "inactive"}, {"measurement": "outcome", "setting": "[32]", "result": "inactive"}, {"measurement": "outcome", "setting": "[33]", "result": "inactive"}, {"measurement": "outcome", "setting": "[34]", "result": "inactive"}, {"measurement": "outcome", "setting": "[35]", "result": "inactive"}, {"measurement": "outcome", "setting": "[36]", "result": "inactive"}, {"measurement": "outcome", "setting": "[37]", "result": "inactive"}, {"measurement": "outcome", "setting": "[38]", "result": "inactive"}, {"measurement": "outcome", "setting": "[39]", "result": "inactive"}, {"measurement": "outcome", "setting": "[40]", "result": "inactive"}, {"measurement": "outcome", "setting": "[41]", "result": "inactive"}, {"measurement": "outcome", "setting": "[42]", "result": "inactive"}, {"measurement": "outcome", "setting": "[43]", "result": "inactive"}, {"measurement": "outcome", "setting": "[44]", "result": "inactive"}, {"measurement": "outcome", "setting": "[45]", "result": "inactive"}, {"measurement": "outcome", "setting": "[46]", "result": "inactive"}, {"measurement": "outcome", "setting": "[47]", "result": "inactive"}, {"measurement": "outcome", "setting": "[48]", "result": "inactive"}, {"measurement": "outcome", "setting": "[49]", "result": "inactive"}, {"measurement": "outcome", "setting": "[50]", "result": "inactive"}, {"measurement": "outcome", "setting": "[51]", "result": "inactive"}, {"measurement": "outcome", "setting": "[52]", "result": "inactive"}, {"measurement": "outcome", "setting": "[53]", "result": "inactive"}]}
{"smiles": "O=C(COc1ccc(/C=C/C(=O)c2ccc(Cl)cc2)cc1)Nc1c(Cl)cccc1Cl", "values": [{"measurement": "TGI", "setting": "[1]", "result": "> 100", "unit": "µM"}, {"measurement": "TGI", "setting": "[54]", "result": "> 100", "unit": "µM"}, {"measurement": "TGI", "setting": "[2]", "result": "> 100", "unit": "µM"}, {"measurement": "TGI", "setting": "[3]", "result": "> 100", "unit": "µM"}, {"measurement": "TGI", "setting": "[5]", "result": "> 100", "unit": "µM"}, {"measurement": "TGI", "setting": "[7]", "result": "> 100", "unit": "µM"}, {"measurement": "TGI", "setting": "[8]", "result": "> 100", "unit": "µM"}, {"measurement": "TGI", "setting": "[9]", "result": "> 100", "unit": "µM"}, {"measurement": "TGI", "setting": "[55]", "result": "> 100", "unit": "µM"}, {"measurement": "TGI", "setting": "[10]", "result": "> 100", "unit": "µM"}, {"measurement": "TGI", "setting": "[11]", "result": "> 100", "unit": "µM"}, {"measurement": "TGI", "setting": "[12]", "result": "> 100", "unit": "µM"}, {"measurement": "TGI", "setting": "[13]", "result": "> 100", "unit": "µM"}, {"measurement": "TGI", "setting": "[14]", "result": "> 100", "unit": "µM"}, {"measurement": "TGI", "setting": "[15]", "result": "> 100", "unit": "µM"}, {"measurement": "TGI", "setting": "[16]", "result": "> 100", "unit": "µM"}, {"measurement": "TGI", "setting": "[17]", "result": "> 100", "unit": "µM"}, {"measurement": "TGI", "setting": "[18]", "result": "> 100", "unit": "µM"}, {"measurement": "TGI", "setting": "[19]", "result": "> 100", "unit": "µM"}, {"measurement": "TGI", "setting": "[20]", "result": "> 100", "unit": "µM"}, {"measurement": "TGI", "setting": "[21]", "result": "> 100", "unit": "µM"}, {"measurement": "TGI", "setting": "[23]", "result": "> 100", "unit": "µM"}, {"measurement": "TGI", "setting": "[24]", "result": "> 100", "unit": "µM"}, {"measurement": "TGI", "setting": "[25]", "result": "> 100", "unit": "µM"}, {"measurement": "TGI", "setting": "[56]", "result": "> 100", "unit": "µM"}, {"measurement": "TGI", "setting": "[57]", "result": "> 100", "unit": "µM"}, {"measurement": "TGI", "setting": "[26]", "result": "> 100", "unit": "µM"}, {"measurement": "TGI", "setting": "[27]", "result": "> 100", "unit": "µM"}, {"measurement": "TGI", "setting": "[28]", "result": "> 100", "unit": "µM"}, {"measurement": "TGI", "setting": "[29]", "result": "> 100", "unit": "µM"}, {"measurement": "TGI", "setting": "[30]", "result": "> 100", "unit": "µM"}, {"measurement": "TGI", "setting": "[32]", "result": "> 100", "unit": "µM"}, {"measurement": "TGI", "setting": "[33]", "result": "> 100", "unit": "µM"}, {"measurement": "TGI", "setting": "[34]", "result": "> 100", "unit": "µM"}, {"measurement": "TGI", "setting": "[36]", "result": "> 100", "unit": "µM"}, {"measurement": "TGI", "setting": "[37]", "result": "> 100", "unit": "µM"}, {"measurement": "TGI", "setting": "[58]", "result": "> 100", "unit": "µM"}, {"measurement": "TGI", "setting": "[59]", "result": "> 100", "unit": "µM"}, {"measurement": "TGI", "setting": "[38]", "result": "> 100", "unit": "µM"}, {"measurement": "TGI", "setting": "[39]", "result": "> 100", "unit": "µM"}, {"measurement": "TGI", "setting": "[40]", "result": "> 100", "unit": "µM"}, {"measurement": "TGI", "setting": "[60]", "result": "> 100", "unit": "µM"}, {"measurement": "TGI", "setting": "[41]", "result": "> 100", "unit": "µM"}, {"measurement": "TGI", "setting": "[43]", "result": "> 100", "unit": "µM"}, {"measurement": "TGI", "setting": "[44]", "result": "> 100", "unit": "µM"}, {"measurement": "TGI", "setting": "[45]", "result": "> 100", "unit": "µM"}, {"measurement": "TGI", "setting": "[46]", "result": "> 100", "unit": "µM"}, {"measurement": "TGI", "setting": "[47]", "result": "> 100", "unit": "µM"}, {"measurement": "TGI", "setting": "[48]", "result": "> 100", "unit": "µM"}, {"measurement": "TGI", "setting": "[49]", "result": "> 100", "unit": "µM"}, {"measurement": "TGI", "setting": "[50]", "result": "> 100", "unit": "µM"}, {"measurement": "TGI", "setting": "[51]", "result": "> 100", "unit": "µM"}, {"measurement": "TGI", "setting": "[52]", "result": "> 100", "unit": "µM"}, {"measurement": "TGI", "setting": "[53]", "result": "> 100", "unit": "µM"}]}
